From publication PMC10468695, “The coenzyme B12 precursor 5,6-dimethylbenzimidazole is a flavin antagonist in Salmonella” (Microbial Cell, 2023) come the findings set out here.

This test deals with T1, NAD(P)H:flavin reductase (Fre) (Salmonella enterica, UniProt Q9L6L9).
T1 construct: tag-less Fre (H6 tag cleaved by rTEV)
T1 sequence (Q9L6L9 2-233): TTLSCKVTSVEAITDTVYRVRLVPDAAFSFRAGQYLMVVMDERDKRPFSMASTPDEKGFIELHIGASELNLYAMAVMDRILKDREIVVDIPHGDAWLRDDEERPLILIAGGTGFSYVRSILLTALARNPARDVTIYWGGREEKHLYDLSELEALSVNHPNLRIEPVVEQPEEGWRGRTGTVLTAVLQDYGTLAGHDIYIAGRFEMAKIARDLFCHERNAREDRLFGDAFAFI
In words: NADH oxidation assay at […] nm with purified Fre; competitive inhibition fit versus FMN. It counts as biochemical.

As usually defined, the Ki is a dissociation constant, usually derived from enzyme kinetics or from competition with a known ligand. Low readings indicate a stronger hold on the target, high ones a looser hold on the target. Molecule `Cc1cc2nc[nH]c2cc1C` [DMB, 5,6-dimethylbenzimidazole] registered a Ki of 1900 µM.
